Results: paper PMC8772772, “Enantioselective Synthesis and Pharmacological Evaluation of Aza-CGP37157–Lipoic Acid Hybrids for the Treatment of Alzheimer’s Disease” (Antioxidants, 2022)
Several values for one entry are separate records, joined by “and”; a condition that tells them apart may be missing. Equal values may be shown once.

Legend:
NRF2 = NRF2 induction, luciferase expression in AREc32 cell line; type: cell-based; settings: for CD (concentration required to double the specific luciferase activity): AREc32 cells, 0.3, 3, 10 and 30 μM (LA: 0.1–0.6 mM), mean ± SEM
Description: AREc32 cell line was kindly shared by Professor Roland Wolf (University of Dundee, UK). AREc32 cells were maintained in DMEM/glutamax/high glucose (Gibco, 61965-06, Madrid, Spain), supplemented with 1% penicillin–streptomycin (10,000 units) (SigmaAldrich, P4333, Madrid, Spain), geneticin (0.8 mg/mL) (Gibco, 11811-031) and 10% FBS (Gibco, 10270106), at 37 °C in a 5% CO2 air atmosphere. Cells were used from passage 4 to 18, and mycoplasma contamination was tested every 4 weeks. AREc32 cells were seeded in 96-well white plates (2 × 10^4 cells/well) for 24 h. Thereafter, cells were treated with each compound (0.3, 3, 10 and 30 µM) in duplicate for 24 h. Non-treated cells were included as basal luciferase expression and tert-butylhydroquinone (TBHQ, 10 μM) as positive control in each plate. Luciferase expression was evaluated by using the Luciferase Assay System (Promega, E1483, Madrid, Spain) by luminescence in an Orion II microplate luminometer (Berthold, Germany). Luciferase activity increase was normalized to basal conditions considered as 1. CD values (concentration required to double the luciferase activity) were calculated from dose–response curves of luciferase fold induction vs. compound concentration, fitted by non-linear regression and data interpolated to value 2.
To evaluate the influence of both stereogenic centers in the NRF2 induction capacity of aza-CGP37157-LA hybrids, we used the AREc32 cell line model by analyzing luciferase expression upon treatment with NRF2 inducers. AREc32 cells were exposed to increasing concentrations of tested compounds 7a–d (0.3, […], 10 and 30 μM) during 24 h; thereafter, luciferase expression was evaluated by luminescent assay to calculate the corresponding CD value (concentration to double luciferase expression). […] TBHQ was included as a positive control, and CGP37157, S- and R-LA, rac-3a and (rac,R)-3b and precursors derivatives (R-6 and S-6) were included for comparative purposes. […] Once R-LA is reduced, it might activate the phase II antioxidant response by acting as pro-oxidant over key Cys residues at KEAP1 to generate the corresponding lipoyl-cystinyl disulphide.

[1] = tested on: SH-SY5Y neuroblastoma cells; assay: Neuroprotection against okadaic acid hyperphosphorylation in SH-SY5Y cells (MTT); type: cell-based, human; settings: for % Survival / % Protection: compound 1 μM 24 h, then compound + OA 24 h; for % Survival: basal = 100, OA alone 54.7; for % Protection: n.p = compound does not protect cells
Description: Human neuroblastoma SH-SY5Y cells were plated in 96-well clear multi-well plates (6 × 10^4 cells/well). The potential neuroprotective activity of compounds against OS was evaluated using the rotenone (30 μM) (SigmaAldrich, R8875) and oligomycin A (10 μM) (SigmaAldrich, 75351) (R/O) toxic mixture. Neuroprotection activity against Tau hyperphosphorylation was evaluated by using the okadaic acid (20 nM) model. Cells were pre-incubated with each compound (1 µM) for 24 h, and then treatments were removed and cells were incubated with compounds (1 µM) in the presence the corresponding toxic for additional 24 h. At the end of the experiments, viability was determined by the MTT method. Data were normalized from cell death induced by the toxic stimuli (considered as 100% cell death). Then, the protection percentages were calculated by subtracting from the death induced by toxic stimuli, the death in the presence of the compound.
The tetrazolium ring of MTT can be cleaved by active dehydrogenases to produce a formazan precipitate. At the end of the experiments, MTT (SigmaAldrich, M2003) stock solution was added to each well to achieve a final concentration of 0.5 mg/mL. Cells were incubated for 2 h. Thereafter, culture media was removed, and DMSO was added to each well to dissolve the formazan precipitate. Finally, absorbance was measured in a microplate reader (SPECTROstar nano, BMG Labtech) at 570 nm. Absorbance obtained in basal conditions was considered as 100% cell viability.
Considering these precedents, we envisaged the evaluation of our compounds in a hyperphosphorylation toxicity model induced by okadaic acid (OA), a protein phosphatase 2A inhibitor [58, 59]. This inhibition causes an imbalance between kinase and phosphatase action, leading to hyperphosphorylation of proteins, in particular, Tau. Thus, treatment of SH-SY5Y neuroblastoma cells with OA is a well-stablished model of Tau hyperphosphorylation. Similarly, to the method used for the OS model, we selected a pre-incubation/co-incubation protocol to evaluate the potential neuroprotection capacity related to the NRF2 induction/antioxidant properties of the compounds. Cells were treated with compounds (±)-6, R-6, S-6 or 7a–d (1 µM) during 24 h; thereafter, cells were co-treated with compounds (1 µM) and OA (20 nM) for a further 24 h. Melatonin was also included as a positive control. Finally, cellular viability was evaluated by the MTT method. […] Finally, the (R,S)-7c diastereomer was not able to afford any protection, a result that might be in line with its low NRF2 induction capacity.

HO-1 and GCLc = assay: Western blot of NRF2-dependent proteins HO-1 and GCLc in AREc32 cells; type: cell-based; settings: 30 μM, 24 h, western blot vs basal
Description: AREc32 cells were seeded in 6 multi-well plates (1 × 10^6 cells/well) for 24 h and treated with compounds 7a and 7b (30 µM) and culture medium (basal) for 24 h. Thereafter, cells were collected and lysed in ice-cold lysis buffer (10% glycerol, 137 mM NaCl, 1% Nonidet P-40, 20 mM Tris HCl pH 7.5, 1 mM phenylmethylsulfonyl fluoride, 20 mM NaF, 1 mM sodium pyrophosphate, 1 μg/mL leupeptin and 1 mM Na3VO4). Then proteins (30 μg) were resolved by gel electrophoresis on sodium dodecyl sulfate–polyacrylamide (10% and 12%) and transferred to Immobilion-P membranes (MilliporeSigma, Madrid, Spain). The membranes were incubated with anti-GCLc (1:1000, Ab41463 (Abcam, Cambridge, MA, USA), anti-HO-1 (1:1000, ab68477, Abcam) or anti-Actin (1:100,000, A3854, Merck, Madrid, Spain). Peroxidase-conjugated secondary antibodies (1:10,000 and antirabbit: SC-2357, Santa Cruz Biotechnology, Dallas, TX, USA) were employed to detect the proteins by enhanced chemiluminescence. Band intensities corresponding to immunoblot detection of protein samples were quantitated with Fiji software.
Once in the nucleus, NRF2 binds to small MafG protein, and the resulting complex binds to the ARE sequences at the DNA to initiate the expression of phase II antioxidant proteins. HO-1 and GCLc are two prominent examples of antioxidant enzymes regulated by the NRF2-ARE pathway related to the heme group processing and the synthesis of glutathione, the major antioxidant defense inside the cells. […] Thereafter, protein expression was evaluated.

SMILES | luciferase activity increase at 30 μM (NRF2; AREc32 cells, 24 h, vs basal) | CD (concentration required to double the specific luciferase activity) (NRF2; 24 h) | neuroprotective capacity relative to (S,R)-7b, folds less potent ([1]; OA model, 1 µM) [folds] | % Survival [1] [%] | % Protection [1] | luciferase activity increase at 10 μM (NRF2; AREc32 cells, 10 μM, 24 h, vs basal) | GCLc expression (HO-1 and GCLc) | HO-1 expression (HO-1 and GCLc) | NRF2 induction potency relative to (S,S)-7a (NRF2; ratio of CD values) [fold]
O=C1CN(CCOC(=O)CCCC[C@@H]2CCSS2)[C@@H](c2ccccc2Cl)c2cc(Cl)ccc2N1 [(R,R)-7d, 2-((R)-7-Chloro-5-(2-chlorophenyl)-2-oxo-1,2,3,5-tetrahydro-4H-benzo[e][1,4]diazepin-4-yl)ethyl 5-((R)-1,2-dithiolan-3-yl)pentanoate] | significantly increase luciferase activity | over 30 μM | 2 | 63.3 ± 8.7 | 21% |  |  |  | 
O=C1CN(CCOC(=O)CCCC[C@@H]2CCSS2)[C@H](c2ccccc2Cl)c2cc(Cl)ccc2N1 [(R,S)-7c, 2-((S)-7-Chloro-5-(2-chlorophenyl)-2-oxo-1,2,3,5-tetrahydro-4H-benzo[e][1,4]diazepin-4-yl)ethyl 5-((R)-1,2-dithiolan-3-yl)pentanoate] | significantly increase luciferase activity | over 30 μM |  | 50.7 ± 15.6 | not protective and n.p | significantly increase luciferase activity |  |  | 
O=C1CN(CCOC(=O)CCCC[C@H]2CCSS2)[C@@H](c2ccccc2Cl)c2cc(Cl)ccc2N1 [(S,R)-7b, 2-((R)-7-Chloro-5-(2-chlorophenyl)-2-oxo-1,2,3,5-tetrahydro-4H-benzo[e][1,4]diazepin-4-yl)ethyl 5-((S)-1,2-dithiolan-3-yl)pentanoate] |  | 11.9 ± 1.3 µM |  | 70.6 ± 10.3 | 41.9% and 40.2% |  | significantly increased | significantly increased | 2.2
O=C1CN(CCOC(=O)CCCC[C@H]2CCSS2)[C@H](c2ccccc2Cl)c2cc(Cl)ccc2N1 [(S,S)-7a, 2-((S)-7-Chloro-5-(2-chlorophenyl)-2-oxo-1,2,3,5-tetrahydro-4H-benzo[e][1,4]diazepin-4-yl)ethyl 5-((S)-1,2-dithiolan-3-yl)pentanoate] |  | 26.5 ± 1.3 µM |  | 63.2 ± 7.6 | 21.2% |  | significantly increased | significantly increased | 
